Active and inactive are the calls of the source. The calls are words filed in the database; no cut-off is given here.
How the values were obtained:
Endothelial cell [1] = assay: Inhibition of endothelial cell ploriferation determined in bovine aortic endothelial cell (BAEC); Inactive; assay type: functional, cell-based; conditions: Bos taurus
[2] = Inhibition of endothelial cell ploriferation determined in bovine aortic endothelial cell (BAEC); assay type: functional, cell-based, Bos taurus
[3] = molecular target: T1, Methionine aminopeptidase 2 (Homo sapiens, UniProt P50579); assay: In vitro inhibitory activity against purified recombinant human Methionine Aminopeptidase 2 (MetAP2)
Target sequence in this assay (P50579 whole entry): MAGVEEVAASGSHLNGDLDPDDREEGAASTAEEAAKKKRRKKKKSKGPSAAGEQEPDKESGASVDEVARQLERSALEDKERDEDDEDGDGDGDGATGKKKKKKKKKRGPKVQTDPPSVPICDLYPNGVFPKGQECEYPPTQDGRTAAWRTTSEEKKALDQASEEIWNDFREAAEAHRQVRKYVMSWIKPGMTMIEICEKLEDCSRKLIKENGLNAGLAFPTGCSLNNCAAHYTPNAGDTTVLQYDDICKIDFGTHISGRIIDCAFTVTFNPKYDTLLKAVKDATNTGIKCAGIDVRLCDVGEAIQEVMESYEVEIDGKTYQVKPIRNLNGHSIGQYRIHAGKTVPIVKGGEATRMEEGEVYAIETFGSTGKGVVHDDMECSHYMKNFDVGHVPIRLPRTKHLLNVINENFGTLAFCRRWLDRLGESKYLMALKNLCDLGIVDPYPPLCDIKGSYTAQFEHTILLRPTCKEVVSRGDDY

[4] = Inhibition of indothelial cell ploriferation determined in bovine aortic endothelial cell (BAEC); assay type: functional, cell-based, Bos taurus
Endothelial cell [5] = assay: Inhibition of indothelial cell ploriferation determined in bovine aortic endothelial cell (BAEC); Inactive; assay type: functional, cell-based; conditions: Bos taurus
[6] = molecular target: T1, Methionine aminopeptidase 2
Target sequence in this assay (P50579 2-478 limits assumed): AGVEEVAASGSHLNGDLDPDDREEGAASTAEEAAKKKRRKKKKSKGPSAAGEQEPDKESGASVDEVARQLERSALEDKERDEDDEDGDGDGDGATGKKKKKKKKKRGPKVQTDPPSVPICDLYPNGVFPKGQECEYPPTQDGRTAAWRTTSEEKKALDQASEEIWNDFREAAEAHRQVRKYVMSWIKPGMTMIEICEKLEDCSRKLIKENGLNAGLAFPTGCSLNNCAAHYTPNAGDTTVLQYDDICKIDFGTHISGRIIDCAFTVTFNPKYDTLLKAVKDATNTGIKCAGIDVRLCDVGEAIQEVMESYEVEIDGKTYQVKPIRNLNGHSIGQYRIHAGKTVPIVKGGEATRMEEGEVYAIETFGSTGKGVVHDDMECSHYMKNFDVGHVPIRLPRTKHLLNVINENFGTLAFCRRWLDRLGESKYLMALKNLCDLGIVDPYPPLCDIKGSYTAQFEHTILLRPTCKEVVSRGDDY

With `CO[C@H]1[C@H]([C@@]2(C)O[C@H]2CC=C(C)C)[C@@](O)(C=O)CC[C@@H]1O` as the molecule, how does the NA (Endothelial cell [1]) read?
Its NA is “inactive”.

What does the source list for `CO[C@@H]1[C@H](OC(=O)/C=C/C=C/C=C/C=C/C(=O)O)CC[C@]2(CO2)[C@H]1[C@@]1(C)O[C@@H]1CC=C(C)C` [FUMAGILLIN]?
IC50 [2]: 200 nM; IC50 [3]: 1 nM

For `CO[C@@H]1C(=O)CC[C@](O)(C=O)[C@H]1[C@@]1(C)O[C@H]1CC=C(C)C`, which IC50 [4] is on record?
Its IC50 is 52 nM.

With `CO[C@@H]1C(=O)CC[C@](O)(C[S+]([O-])c2ccccc2)[C@H]1[C@@]1(C)O[C@@H]1CC=C(C)C` (some centres not stated) as the molecule, how does the NA (Endothelial cell [5]) read?
Its NA is “inactive”.

What about the NA [6] of the same molecule?
Its NA is “inactive”.

For `CO[C@@H]1[C@H](O)CC[C@](O)(C=O)[C@H]1[C@@]1(C)O[C@@H]1CC=C(C)C`, which NA (Endothelial cell [5]) is on record?
The NA was “inactive”.
